Data published in PubChem BioAssay (NCI).
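Following 48 hours of exposure in 96-well plates, responses at five concentrations were used to interpolate endpoints linearly. TGI: total growth inhibition.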

How the values were obtained:
Experiment in all cases: NCI anticancer screen, dose series, 48 h
786-0 renal = test system: 786-0 renal
A498 renal = test system: A498 renal
A549 NSCLC = test system: A549 NSCLC
ACHN renal = test system: ACHN renal
BT-549 breast = test system: BT-549 breast
CAKI-1 renal = test system: CAKI-1 renal
COLO 205 colon = test system: COLO 205 colon
DU-145 prostate = test system: DU-145 prostate
EKVX NSCLC = test system: EKVX NSCLC
HCC-2998 colon = test system: HCC-2998 colon
HCT-116 colon = test system: HCT-116 colon
HCT-15 colon = test system: HCT-15 colon
HL-60(TB) leukemia = test system: HL-60(TB) leukemia
HOP-62 NSCLC = test system: HOP-62 NSCLC
HOP-92 NSCLC = test system: HOP-92 NSCLC
HS 578T breast = test system: HS 578T breast
HT29 colon = test system: HT29 colon
IGROV1 ovarian = test system: IGROV1 ovarian
K-562 leukemia = test system: K-562 leukemia
KM12 colon = test system: KM12 colon
LOX IMVI melanoma = test system: LOX IMVI melanoma
M14 melanoma = test system: M14 melanoma
MCF7 breast = test system: MCF7 breast
MDA-MB-231 breast = test system: MDA-MB-231 breast
MDA-MB-435 = test system: MDA-MB-435
MDA-N = test system: MDA-N
MOLT-4 leukemia = test system: MOLT-4 leukemia
NCI-H226 lung = test system: NCI-H226 lung
NCI-H23 lung = test system: NCI-H23 lung
NCI-H522 lung = test system: NCI-H522 lung
NCI/ADR-RES ovarian = test system: NCI/ADR-RES ovarian
OVCAR-3 ovarian = test system: OVCAR-3 ovarian
OVCAR-4 ovarian = test system: OVCAR-4 ovarian
OVCAR-5 ovarian = test system: OVCAR-5 ovarian
OVCAR-8 ovarian = test system: OVCAR-8 ovarian
PC-3 prostate = test system: PC-3 prostate
RPMI-8226 leukemia = test system: RPMI-8226 leukemia
SF-268 CNS = test system: SF-268 CNS
SF-295 CNS = test system: SF-295 CNS
SF-539 CNS = test system: SF-539 CNS
SK-MEL-2 melanoma = test system: SK-MEL-2 melanoma
SK-MEL-28 melanoma = test system: SK-MEL-28 melanoma
SK-MEL-5 melanoma = test system: SK-MEL-5 melanoma
SK-OV-3 ovarian = test system: SK-OV-3 ovarian
SN12C renal = test system: SN12C renal
SNB-19 CNS = test system: SNB-19 CNS
SNB-75 CNS = test system: SNB-75 CNS
SR leukemia = test system: SR leukemia
SW-620 colon = test system: SW-620 colon
T-47D breast = test system: T-47D breast
TK-10 renal = test system: TK-10 renal
U251 CNS = test system: U251 CNS
UACC-257 melanoma = test system: UACC-257 melanoma
UACC-62 melanoma = test system: UACC-62 melanoma
UO-31 renal = test system: UO-31 renal
CCRF-CEM leukemia = test system: CCRF-CEM leukemia
MALME-3M melanoma = test system: MALME-3M melanoma
NCI-H460 lung = test system: NCI-H460 lung

Measured: TGI

COc1c(OC)c(OC)c2c(c1OC)c(=O)c1ccccc1n2C
not listed: CCRF-CEM leukemia | MALME-3M melanoma | NCI-H460 lung
> 100 µM: all other assays above

O=NNc1ccc(S(=O)(=O)c2ccccc2)cn1
not listed: HL-60(TB) leukemia | HOP-92 NSCLC | LOX IMVI melanoma | MDA-MB-435 | RPMI-8226 leukemia | SK-MEL-5 melanoma
> 100 µM: all other assays above
